Source: ChEMBL document CHEMBL5291721, “A preclinical secondary pharmacology resource illuminates target-adverse drug reaction associations of marketed drugs” (Nat Commun, 2023)

Assays:
[1] = target: Beta-1 adrenergic receptor (Homo sapiens, UniProt P08588); type: functional, cell-based
Androgen receptor = target: T1, Androgen receptor (Rattus norvegicus, UniProt P15207)
T1 sequence (P15207 whole entry): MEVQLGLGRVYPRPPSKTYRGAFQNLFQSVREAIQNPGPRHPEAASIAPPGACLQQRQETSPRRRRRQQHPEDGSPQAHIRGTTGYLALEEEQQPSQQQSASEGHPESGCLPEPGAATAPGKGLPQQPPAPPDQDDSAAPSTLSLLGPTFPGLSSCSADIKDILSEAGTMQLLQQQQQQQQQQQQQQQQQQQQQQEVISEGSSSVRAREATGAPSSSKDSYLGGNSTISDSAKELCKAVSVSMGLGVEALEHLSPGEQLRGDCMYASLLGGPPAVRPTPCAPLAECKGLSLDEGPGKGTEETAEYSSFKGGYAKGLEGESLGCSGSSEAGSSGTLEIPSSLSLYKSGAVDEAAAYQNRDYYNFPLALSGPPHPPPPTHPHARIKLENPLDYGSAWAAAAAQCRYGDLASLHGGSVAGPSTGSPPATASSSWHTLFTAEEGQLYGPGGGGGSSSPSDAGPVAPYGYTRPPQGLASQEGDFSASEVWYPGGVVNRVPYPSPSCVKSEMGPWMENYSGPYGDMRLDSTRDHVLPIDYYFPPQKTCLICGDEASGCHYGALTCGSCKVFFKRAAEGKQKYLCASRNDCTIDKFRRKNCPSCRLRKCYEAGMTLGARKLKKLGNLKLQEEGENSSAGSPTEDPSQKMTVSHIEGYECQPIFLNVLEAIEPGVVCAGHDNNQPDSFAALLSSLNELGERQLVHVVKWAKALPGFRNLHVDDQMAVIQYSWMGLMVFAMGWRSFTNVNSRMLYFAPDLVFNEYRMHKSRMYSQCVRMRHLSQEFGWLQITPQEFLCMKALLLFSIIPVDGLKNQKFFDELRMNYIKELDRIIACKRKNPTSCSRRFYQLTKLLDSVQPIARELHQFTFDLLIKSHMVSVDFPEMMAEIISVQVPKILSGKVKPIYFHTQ

[2] = target: T2, Peroxisome proliferator-activated receptor gamma (Homo sapiens, UniProt P37231); type: functional
T2 sequence (P37231 whole entry): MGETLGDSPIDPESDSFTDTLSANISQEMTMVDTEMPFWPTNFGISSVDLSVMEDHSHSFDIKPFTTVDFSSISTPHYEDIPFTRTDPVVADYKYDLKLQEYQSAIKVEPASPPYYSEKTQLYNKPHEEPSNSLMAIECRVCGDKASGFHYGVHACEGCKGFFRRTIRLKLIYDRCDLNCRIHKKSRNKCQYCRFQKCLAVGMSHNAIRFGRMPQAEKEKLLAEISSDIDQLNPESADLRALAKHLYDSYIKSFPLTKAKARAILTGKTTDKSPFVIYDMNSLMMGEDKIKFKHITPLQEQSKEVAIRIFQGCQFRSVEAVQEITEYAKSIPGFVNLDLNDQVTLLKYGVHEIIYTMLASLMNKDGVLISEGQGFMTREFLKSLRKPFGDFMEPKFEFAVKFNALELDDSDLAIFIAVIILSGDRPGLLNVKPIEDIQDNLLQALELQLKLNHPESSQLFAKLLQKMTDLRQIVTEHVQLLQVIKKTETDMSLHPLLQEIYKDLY

Histamine H1 receptor = Histamine H1 receptor (Homo sapiens, UniProt P35367); type: functional, cell-based
[3] = target: T3, Endothelin receptor type B (Homo sapiens, UniProt P24530)
T3 sequence (P24530 whole entry): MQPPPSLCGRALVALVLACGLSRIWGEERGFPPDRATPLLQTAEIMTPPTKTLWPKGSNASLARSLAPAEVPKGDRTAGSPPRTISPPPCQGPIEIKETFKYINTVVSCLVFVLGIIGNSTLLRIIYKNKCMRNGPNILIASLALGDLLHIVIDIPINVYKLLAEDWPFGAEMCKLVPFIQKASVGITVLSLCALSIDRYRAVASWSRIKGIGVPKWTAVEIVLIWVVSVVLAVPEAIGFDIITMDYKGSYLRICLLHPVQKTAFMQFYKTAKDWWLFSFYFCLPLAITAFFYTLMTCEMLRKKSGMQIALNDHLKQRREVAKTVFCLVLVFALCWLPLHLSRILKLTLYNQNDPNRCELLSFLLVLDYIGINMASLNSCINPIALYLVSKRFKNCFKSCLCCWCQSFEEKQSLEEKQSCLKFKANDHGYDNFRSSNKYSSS

[4] = target: T4, 5-hydroxytryptamine receptor 1A (Homo sapiens, UniProt P08908)
T4 sequence (P08908 whole entry): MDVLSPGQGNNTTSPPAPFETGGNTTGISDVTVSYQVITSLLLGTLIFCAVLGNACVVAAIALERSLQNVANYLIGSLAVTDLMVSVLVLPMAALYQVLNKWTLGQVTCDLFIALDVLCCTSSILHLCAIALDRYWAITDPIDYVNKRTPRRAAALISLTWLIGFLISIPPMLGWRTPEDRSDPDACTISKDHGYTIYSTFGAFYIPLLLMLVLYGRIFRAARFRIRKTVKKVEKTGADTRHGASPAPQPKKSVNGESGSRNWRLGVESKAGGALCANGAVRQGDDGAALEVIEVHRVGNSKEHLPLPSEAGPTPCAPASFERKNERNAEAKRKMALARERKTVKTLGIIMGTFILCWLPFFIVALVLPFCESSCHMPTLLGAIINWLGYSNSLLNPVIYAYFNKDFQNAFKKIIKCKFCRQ

[5] = target: Neurotensin receptor type 1 (Homo sapiens, UniProt P30989)
[6] = target: T5, Alpha-1A adrenergic receptor (Homo sapiens, UniProt P35348)
T5 sequence (P35348 whole entry): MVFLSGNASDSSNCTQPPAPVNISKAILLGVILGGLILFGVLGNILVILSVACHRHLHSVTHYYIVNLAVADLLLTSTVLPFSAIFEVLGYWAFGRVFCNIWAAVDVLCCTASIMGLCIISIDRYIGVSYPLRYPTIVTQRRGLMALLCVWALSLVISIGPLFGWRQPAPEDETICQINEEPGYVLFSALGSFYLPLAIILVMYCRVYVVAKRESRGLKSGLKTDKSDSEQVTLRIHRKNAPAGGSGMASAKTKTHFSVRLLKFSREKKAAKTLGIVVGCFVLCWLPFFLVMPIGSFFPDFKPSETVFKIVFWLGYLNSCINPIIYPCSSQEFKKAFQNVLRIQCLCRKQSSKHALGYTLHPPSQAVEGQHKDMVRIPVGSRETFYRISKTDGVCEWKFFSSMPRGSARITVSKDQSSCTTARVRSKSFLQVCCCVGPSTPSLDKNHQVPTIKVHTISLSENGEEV
Note: assay procedure not described here.

Histamine H1 receptor, sequence (P35367 whole entry): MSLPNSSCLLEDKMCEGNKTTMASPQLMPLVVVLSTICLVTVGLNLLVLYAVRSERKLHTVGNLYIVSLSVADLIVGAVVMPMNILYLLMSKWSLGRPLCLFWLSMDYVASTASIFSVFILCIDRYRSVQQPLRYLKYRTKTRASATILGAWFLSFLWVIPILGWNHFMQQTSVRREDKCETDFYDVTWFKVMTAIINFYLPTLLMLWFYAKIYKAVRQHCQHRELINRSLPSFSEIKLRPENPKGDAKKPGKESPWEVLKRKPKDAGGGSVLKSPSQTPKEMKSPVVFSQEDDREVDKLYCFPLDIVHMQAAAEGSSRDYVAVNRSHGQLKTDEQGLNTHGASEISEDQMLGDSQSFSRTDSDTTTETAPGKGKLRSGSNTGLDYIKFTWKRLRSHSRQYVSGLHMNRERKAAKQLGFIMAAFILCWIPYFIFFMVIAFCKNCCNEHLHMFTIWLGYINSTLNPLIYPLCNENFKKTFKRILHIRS
Neurotensin receptor type 1, sequence (P30989 whole entry): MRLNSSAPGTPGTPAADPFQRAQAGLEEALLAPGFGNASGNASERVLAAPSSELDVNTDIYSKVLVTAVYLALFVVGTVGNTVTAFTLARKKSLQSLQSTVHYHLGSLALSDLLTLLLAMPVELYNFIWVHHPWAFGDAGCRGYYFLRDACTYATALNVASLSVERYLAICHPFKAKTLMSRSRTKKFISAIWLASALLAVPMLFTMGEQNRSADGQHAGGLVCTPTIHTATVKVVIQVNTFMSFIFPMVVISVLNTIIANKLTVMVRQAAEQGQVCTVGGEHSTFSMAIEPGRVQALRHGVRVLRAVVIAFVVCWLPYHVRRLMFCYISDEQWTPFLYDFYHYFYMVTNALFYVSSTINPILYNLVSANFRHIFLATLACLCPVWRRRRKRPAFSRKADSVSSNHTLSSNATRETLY
Beta-1 adrenergic receptor, sequence (P08588 whole entry): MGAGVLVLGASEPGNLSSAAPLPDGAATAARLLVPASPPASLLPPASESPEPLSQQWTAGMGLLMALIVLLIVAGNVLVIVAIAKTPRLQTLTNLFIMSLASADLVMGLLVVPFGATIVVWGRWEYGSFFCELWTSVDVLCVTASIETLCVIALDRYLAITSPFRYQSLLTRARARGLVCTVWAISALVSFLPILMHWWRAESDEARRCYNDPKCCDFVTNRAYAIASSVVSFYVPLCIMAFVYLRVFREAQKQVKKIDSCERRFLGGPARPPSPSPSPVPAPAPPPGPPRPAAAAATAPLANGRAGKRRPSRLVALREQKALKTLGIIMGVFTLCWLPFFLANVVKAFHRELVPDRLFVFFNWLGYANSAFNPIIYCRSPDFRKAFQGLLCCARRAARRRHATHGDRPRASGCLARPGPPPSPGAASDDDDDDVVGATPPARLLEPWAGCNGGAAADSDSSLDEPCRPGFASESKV

## C[N+](C)(C)CCOP(=O)([O-])OC[C@H](O)CO
[1]
  AC50: > 30 µM

## CN(C)Cc1nnc2n1-c1ccc(Cl)cc1C(c1ccccc1)=NC2 [ADINAZOLAM]
Androgen receptor
  AC50: > 10 µM

## CN(C)C/C=C/C(=O)Nc1cc2c(Nc3ccc(F)c(Cl)c3)ncnc2cc1O[C@H]1CCOC1 [AFATINIB]
[2]
  AC50: > 30 µM
Histamine H1 receptor
  AC50: > 30 µM

## Cc1ccccc1-n1c(CF)nc2ccc(N)cc2c1=O [AFLOQUALONE]
Androgen receptor
  AC50: > 30 µM

## O=C(/C=C/c1cccc(S(=O)(=O)Nc2ccccc2)c1)NO [BELINOSTAT]
[3]
  AC50: > 10 µM
[4]
  AC50: > 10 µM
[5]
  AC50: > 10 µM
Androgen receptor
  AC50: > 30 µM
[6]
  AC50: > 10 µM

## CC(C)(Oc1ccc(CCNC(=O)c2ccc(Cl)cc2)cc1)C(=O)O [BEZAFIBRATE]
[2]
  AC50: > 30 µM

## CC(O)(CS(=O)(=O)c1ccc(F)cc1)C(=O)Nc1ccc(C#N)c(C(F)(F)F)c1 (stereo not given) [BICALUTAMIDE]
[3]
  AC50: > 30 µM
[4]
  AC50: > 10 µM
[5]
  AC50: > 30 µM
[6]
  AC50: > 10 µM

## O=C(O)COCCN1CCN(C(c2ccccc2)c2ccc(Cl)cc2)CC1 (stereo not given) [CETIRIZINE]
[3]
  AC50: > 30 µM
[4]
  AC50: > 10 µM
[5]
  AC50: > 30 µM
[6]
  AC50: > 10 µM

## CC(=O)O[C@]1(C(C)=O)CC[C@H]2[C@@H]3C=C(Cl)C4=CC(=O)[C@@H]5C[C@@H]5[C@]4(C)[C@H]3CC[C@@]21C [CYPROTERONE ACETATE]
[4]
  AC50: > 10 µM

## C[C@@H]1C[C@H]2[C@@H]3C[C@H](F)C4=CC(=O)C=C[C@]4(C)[C@@]3(F)[C@@H](O)C[C@]2(C)[C@@]1(OC(=O)c1ccco1)C(=O)SCF [FLUTICASONE FUROATE]
[3]
  AC50: > 10 µM
[4]
  AC50: > 10 µM
[6]
  AC50: > 10 µM

## COc1ccc([C@@H]2CC(=O)c3c(O)cc(O)cc3O2)cc1O [HESPERETIN]
Androgen receptor
  AC50: > 10 µM

## CNCCc1ccc(OC(=O)C(C)C)c(OC(=O)C(C)C)c1 [IBOPAMINE]
[1]
  AC50: > 30 µM

## CN(C)CCCN1c2ccccc2CCc2ccccc21 [IMIPRAMINE]
[3]
  AC50: > 30 µM
[4]
  AC50: > 10 µM
[5]
  AC50: > 30 µM
[6]
  AC50: 0.239 µM

## COC(=O)C1=C(C)NC(C)=C(C(=O)OCCN2CCN(C(c3ccccc3)c3ccccc3)CC2)C1c1cccc([N+](=O)[O-])c1 (stereo not given) [MANIDIPINE 6300]
[1]
  AC50: > 30 µM

## C=C1c2cccc(O)c2C(=O)C2=C(O)[C@]3(O)C(=O)C(C(N)=O)=C(O)[C@@H](N(C)C)[C@@H]3[C@@H](O)[C@H]12 [METHACYCLINE]
Androgen receptor
  AC50: > 30 µM

## CN(Cc1cnc2nc(N)nc(N)c2n1)c1ccc(C(=O)N[C@@H](CCC(=O)O)C(=O)O)cc1 [METHOTREXATE]
[3]
  AC50: > 30 µM
[4]
  AC50: > 10 µM
[5]
  AC50: > 30 µM
Androgen receptor
  AC50: > 30 µM

## OC[C@H]1O[C@@H](n2cnc3c2NC=NC[C@H]3O)C[C@@H]1O [PENTOSTATIN]
[2]
  AC50: > 30 µM
Histamine H1 receptor
  AC50: > 30 µM

## CC(C)c1cccc(C(C)C)c1O [PROPOFOL]
[2]
  AC50: > 30 µM

## CN[C@@H](C)[C@@H](O)c1ccccc1 [PSEUDOEPHEDRINE]
[3]
  AC50: > 30 µM
[4]
  AC50: > 10 µM
[5]
  AC50: > 30 µM
[6]
  AC50: > 10 µM

## CCCN1CC(NS(=O)(=O)N(CC)CC)CC2Cc3c(O)cccc3CC21 (stereo not given) [QUINAGOLIDE]
[1]
  AC50: > 30 µM

## O=C1OC(OC(=O)c2cccnc2Nc2cccc(C(F)(F)F)c2)c2ccccc21 (stereo not given) [TALNIFLUMATE]
Histamine H1 receptor
  AC50: > 30 µM

## O=S1(=O)CCN(CN2CCS(=O)(=O)NC2)CN1 [TAUROLIDINE]
Histamine H1 receptor
  AC50: > 30 µM
